Holding throughout (assay): NCI anticancer screen, dose series, 48 h
The test system of assay [1] is 786-0 renal.
In assay [2] the test system is A498 renal.
Assay [3] relates to A549 NSCLC.
Assay [4] deals with CAKI-1 renal.
The test system of assay [5] is HL-60(TB) leukemia.
Assay [6] deals with MDA-MB-435.
For assay [7], the system named is SK-MEL-5 melanoma.
For assay [8], the system named is T-47D breast.
For assay [9], the system named is UACC-257 melanoma.
In assay [10] the test system is SW-620 colon.

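These data come from cells grown in 96-well plates and exposed to compound for 48 hours at five concentrations. The concentration for 50% growth inhibition is given as GI50. TGI: total growth inhibition.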

On to `CC(C)C(O)(C(C)C)C(C)C`, for which the TGI in assay [1], in [2], in [3], in assay [4], in assay [5] and in assay [6] was greater than 100 µM in each case. Moreover, the TGI in assay [7], in assay [8] and in assay [9] was greater than 100 µM each time.

For the molecule `Cc1ccc(S(=O)(=O)N=Nc2c(O)[nH]c3cc(O)c(C(=O)O)cc23)cc1`, the TGI in assay [1], in [2], in assay [3], in assay [4], in [6] and in assay [7] was greater than 100 µM in each case. Besides, the TGI in assay [10], in assay [8] and in assay [9] was greater than 100 µM throughout.

Turning to `Cc1cn(C2CC(OC(=O)c3ccc(Cl)cc3)C(COC(=O)c3ccc(Cl)cc3)O2)c(=O)[nH]c1=O` (centres undefined), the TGI in assay [1], in assay [3], in [4], in assay [5], in [6] and in assay [7] was greater than 100 µM each time. Moreover, the TGI in [10], in assay [8] and in [9] was greater than 100 µM each time.

For `COc1ccc(C(C#N)NC23CC4CC(CC(C4)C2)C3)cc1` (centres undefined), the TGI in assay [1], in assay [3], in assay [4], in [5], in assay [6] and in assay [7] was greater than 100 µM throughout. Further, the TGI in assay [10], in assay [8] and in assay [9] was greater than 100 µM throughout.

On to `C=C(C)C1CC2(C)C(C)CC(O)CC2C(OC(=O)C=C(C)C)C1O` (centres undefined), for which the TGI in [1] is greater than 100 µM; in [2], greater than 100 µM; in [3] it was greater than 100 µM; in [4], greater than 100 µM; in [5] it was 50.5 µM; in assay [6], greater than 100 µM. Besides, the TGI was 49.2 µM in assay [7], greater than 100 µM in assay [8] and greater than 100 µM in [9].

Take `O=C(O)CCCc1ccc2ccc3ccccc3c2c1`: the TGI in assay [1], in assay [2], in [3], in [4], in assay [6] and in [7] was greater than 100 µM each time. For the same molecule, the TGI in assay [8] and in assay [9] was greater than 100 µM in each case.

With `N/N=C\c1c2ccccc2c(=O)n2c1oc1ccccc12`, the GI50 in assay [1] was 26.7 µM; in [3], 11.2 µM; in [4], 14.2 µM; in [5] it was 21.1 µM; in [6] it was 11.3 µM; in assay [7], 2.8 µM. Besides, the GI50 is 15.1 µM in assay [10], 20.5 µM in assay [8] and 17.3 µM in assay [9]. Besides, the TGI in assay [1] amounted to 61.7 µM; in [3], 41.7 µM; in [4], 27.3 µM; in [5], 50.9 µM; in assay [6] it was 23.8 µM; in assay [7], 8.34 µM. Besides, the TGI in assay [10] was 32.5 µM; in [8] it was 39.9 µM; in assay [9], 39 µM.

On to `Nc1n[nH]c2cccc(C#Cc3cccc(NC(=O)c4cccc(C(F)(F)F)c4)c3)c12`, for which the GI50 in assay [1] is 3.03 µM; in assay [2], 2.41 µM; in [3], 4.84 µM; in assay [5], 0.875 µM; in assay [6], 3.04 µM; in assay [7] it was 4.13 µM. The GI50 in assay [10] is 3.22 µM; in assay [8], 1.81 µM; in [9], 4.3 µM. Besides, the TGI in [1] was 8.74 µM; in assay [2], 5.57 µM; in [3] it was 18.6 µM; in [5] it was 4.55 µM; in [6], 13.7 µM; in [7] it was 14.8 µM. Also, the TGI in assay [10] came out at 19.5 µM; in [8] it was 8.1 µM; in assay [9], 15.8 µM.

Turning to `CC/C=C\C[C@H]1CC=C2C(=O)C=C[C@@H]2CC=CCCCC(=O)O[C@@H](CCCCC)CC=C2C(=O)C=C[C@@H]2CC=CCCCC(=O)O[C@@H](CCCCC)CC=C2C(=O)C=C[C@@H]2CC=CCCCC(=O)O[C@@H](CCCCC)CC=C2C(=O)C=C[C@@H]2CC=CCCCC(=O)O1`, the GI50 was 2.29 µM in [1]; 2.25 µM in assay [2]; 3.59 µM in assay [3]; 2.09 µM in assay [5]; 1.59 µM in [6]; 1.85 µM in assay [7]. Moreover, the GI50 in assay [10] is 2.54 µM; in assay [8] it was 1.81 µM; in [9], 2.95 µM. The TGI in assay [1] is 6.51 µM; in [2], greater than 7.9 µM; in assay [3], greater than 7.9 µM; in [5], 6.26 µM; in [6] it was 4.54 µM; in [7], 4.5 µM. Besides, the TGI was greater than 7.9 µM in assay [10], 5.12 µM in [8] and greater than 7.9 µM in assay [9].

In the case of `CCCOC(=O)N[C@H]1CCc2c(Cl)c(OC)c(OC)c(OC)c2-c2ccc(SC)c(=O)cc21`, the GI50 in assay [1] is less than 0.0174 µM; in assay [2] it was less than 0.01 µM; in assay [3], less than 0.0153 µM; in assay [4] it was less than 0.0226 µM; in assay [5] it was less than 0.01 µM; in [6] it was less than 0.01 µM. Also, the values for the GI50 in assay [7], in assay [10] and in [9] were less than 0.01 µM, less than 0.01 µM and 7.46 µM, respectively. In addition, the TGI in assay [1] is 21.5 µM; in assay [2], less than 0.01 µM; in assay [3], greater than 100 µM; in assay [4], 14.1 µM; in assay [5] it was less than 0.01 µM; in assay [6], less than 0.01 µM. Moreover, the TGI in assay [7] was 0.0207 µM; in [10], greater than 52.5 µM; in [9] it was 37.5 µM.

As for `COc1cc(Nc2ncccc2C(=O)Nc2nc3ccc(F)cc3s2)cc(OC)c1OC`, the GI50 was 5.51 µM in [1]; 3.45 µM in assay [2]; 3.11 µM in assay [3]; 3.15 µM in assay [4]; 2.87 µM in assay [6]; 1.63 µM in assay [7]. The GI50 in assay [8] is 2.3 µM. The TGI in assay [1] is greater than 100 µM; in assay [2], greater than 100 µM; in assay [3] it was greater than 100 µM; in assay [4] it was greater than 100 µM; in assay [6] it was greater than 100 µM; in [7], 5.14 µM. The TGI in assay [8] stood at 7.86 µM.

The record behind these values is PubChem BioAssay (NCI).
